According to PMC10463376, “Design, synthesis, in vitro anticancer, molecular docking and SAR studies of new series of pyrrolo[2,3-d]pyrimidine derivatives” (BMC Chemistry, 2023):
Values after ≈ are worked out from the molar mass of the structure shown.

Columns and labels:
[1] = system: MCF7 breast cancer cells; test: MTT assay, MCF7; settings: for cytotoxicity at 100 µg/mL / IC50: Homo sapiens, MCF7, 72 h; for cytotoxicity at 100 µg/mL / cytotoxicity: read-out: MTT cell proliferation mortality assay (%) MCF7; for IC50: read-out: IC50 MCF7; for cytotoxicity: at 100 μg/ml, 72 h
Description: (§1) All of the following steps were done in a sterile Laminar flow class II biosafety cabinet (Baker, SG406INT, Sanford, ME, USA). DMEM was used as a suspension medium for breast cancer (MCF7), colorectal cancer (HCT116), prostate cancer (PC3), liver cancer (HePG2), pancreatic cancer (PACA2) and lung cancer (A549), while normal cell line (BJ1) was suspended in DMEM-F12 medium. The selected cell lines were purchased from American Type Culture Collection (ATCC). The media were supplemented with a 1% antimycotic-antibiotic mixture (10,000 µg/ml streptomycin sulfate, 25 µg/ml Amphotericin B, and 10,000 U/ml Potassium Penicillin) and 1% L-glutamine. 10 × 10^4cells/well were seeded in 96 well microtiter plates and incubated for 24 h at 37 ℃ under 5% carbon dioxide using a water-jacketed Carbon dioxide incubator (Sheldon, SCO5A, OR, USA). […] After the incubation time of 72 h, the medium was removed. Afterward, 40 µl MTT salt ([…]) was added to each well and kept for 4 h under the same conditions of 37 °C and 5% carbon dioxide. Finally, 200 μl of 10% Sodium dodecyl sulfate (SDS) in deionized water was added to each well and incubated overnight at 37 °C. The step of SDS addition was done to stop the reaction and dissolve the formed formazan crystals. The absorbance was then measured at a wavelength of 595 nm and the reference wavelength was set at 620 nm using a microplate multi-well reader (Bio-Rad Laboratories Inc., model 3356, California, USA). […] A statistical significance analysis was determined between the samples and the negative control using an independent t-test by SPSS 11 program. Dimethyl sulfoxide (DMSO) was the vehicle that dissolved our synthesized compounds and its concentration in the cells was less than 0.2%. IC50 values were calculated using the GraphPad Prism 6 program. The degree of selectivity of the synthetic compounds was expressed as SI = IC50 of a pure compound in a normal cell line/IC50 of the same pure compound in the cancer cell line, where IC50 is the concentration of the compound required to kill 50% of the cells.

[2] = system: A549 lung cancer cells; test: MTT assay, A549; settings: Homo sapiens, A549, 72 h, read-out: MTT cell proliferation mortality assay (%) A549, at 100 μg/ml, 72 h
Description: as §1

[3] = system: HCT116 colorectal cancer cells; test: MTT assay, HCT116; settings: for cytotoxicity at 100 µg/mL / IC50: Homo sapiens, HCT-116, 72 h; for cytotoxicity at 100 µg/mL: read-out: MTT cell proliferation mortality assay (%) HCT116, at 100 μg/ml, 72 h; for IC50: read-out: IC50 HCT116; for cytotoxicity: read-out: MTT cell proliferation mortality assay (%) HCT116, at 100 μg/ml, 72 h
Description: as §1

[4] = system: PC3 prostate cancer cells; test: MTT assay, PC3; settings: Homo sapiens, 72 h; for cytotoxicity at 100 µg/mL: read-out: MTT cell proliferation mortality assay (%) PC3, at 100 μg/ml, 72 h; for IC50: read-out: IC50 PC3
Description: as §1

[5] = system: PACA2 pancreatic cancer cells; test: MTT assay, PACA2; settings: Homo sapiens, PaCa-2, 72 h; for cytotoxicity at 100 µg/mL: read-out: MTT cell proliferation mortality assay (%) PACA2; for IC50: read-out: IC50 PACA2
Description: as §1

[6] = MTT assay, normal cell line BJ1; type: cell-based; settings: human, at 100 μg/ml, read-out: MTT cell proliferation mortality assay (%) BJ1
Description: as §1

[7] = system: HePG2 liver cancer cells; test: MTT assay, HePG2; settings: Homo sapiens, HepG2, 72 h; for cytotoxicity at 100 µg/mL: read-out: MTT cell proliferation mortality assay (%) HePG2; for IC50: read-out: IC50 HePG2
Description: as §1

Row | Compound | cytotoxicity at 100 µg/mL [1] | cytotoxicity at 100 µg/mL [2] | cytotoxicity at 100 µg/mL [3] | cytotoxicity at 100 µg/mL [4] | cytotoxicity at 100 µg/mL [5] | cytotoxicity at 72 h, 100 μg/ml [6] | IC50 [1] | cytotoxicity [1] | IC50 [4] | cytotoxicity at 100 µg/mL [7] | IC50 [3] | cytotoxicity [3] | IC50 [7] | IC50 [5]
1 | COc1ncnc2c1c(-c1ccc(Br)cc1)c(Cl)n2-c1ccc(Cl)cc1Cl [Compound 9a, 5-(4-bromophenyl)-6-chloro-7-(2,4-dichlorophenyl)-4-methoxy-7H-pyrrolo[2,3-d]pyrimidine] | 75.2 ± 3.6% | 58.6 ± 1.3% | 52.1 ± 0.8% | 53.8 ± 0.3% | 1.3 ± 0.2% | 37.8 ± 0.6% |  |  |  |  |  |  |  | 
2 | COc1ccc(-c2c(Cl)n(-c3ccc(Cl)cc3Cl)c3ncnc(N4CCCC4)c23)cc1OC [Compound 11b, 6-chloro-7-(2,4-dichlorophenyl)-5-(3,4-dimethoxyphenyl)-4-(pyrrolidin-1-yl)-7H-pyrrolo[2,3-d]pyrimidine] | 80.4 ± 1.8% | 11.6 ± 0.9% | 33.5 ± 0.4% | 94.6 ± 1.3% | 25.6 ± 0.9% | 56.9 ± 0.1% | 48.4 ± 0.8 µg/mL (≈ 96.1 µM) | 80 to 95% | 27.7 ± 0.1 µg/mL (≈ 55 µM) | 63.1 ± 0.5% |  |  |  | 
3 | Clc1ccc(-n2c(Cl)c(-c3ccc(Br)cc3)c3c(N4CCOCC4)ncnc32)c(Cl)c1 [Compound 18a, 4-(5-(4-bromophenyl)-6-chloro-7-(2,4-dichlorophenyl)-7H-pyrrolo[2,3-d]pyrimidin-4-yl)morpholine] | 41.2 ± 1.5% | 22.7 ± 0.9% | 54.2 ± 1.2% | 2.1 ± 0.6% | 31 ± 1.3% | 3.2 ± 1.5% |  |  |  | 16.4 ± 1.6% |  |  |  | 
4 | COc1nc(C(Cl)(Cl)Cl)nc2c1c(-c1ccc(Br)cc1)c(Cl)n2-c1ccc(Cl)cc1Cl [Compound 8, 5-(4-bromophenyl)-6-chloro-7-(2,4-dichlorophenyl)-4-methoxy-2-(trichloromethyl)-7H-pyrrolo[2,3-d]pyrimidine] | 84.3 ± 2.5% | 19.3 ± 1.2% | 80 to 90% | 13.5 ± 1.5% | 100% | 15.6 ± 2.8% | 48 ± 1.5 µg/mL (≈ 79.9 µM) | 80 to 95% |  | 100% | 68.1 ± 1 µg/mL (≈ 113 µM) | 80 ± 1% | 17.8 ± 1.3 µg/mL (≈ 29.6 µM) | 23.5 ± 0.6 µg/mL (≈ 39.1 µM)
5 | S=c1[nH]cnc2c1c(-c1ccc(Br)cc1)c(Cl)n2-c1ccc(Cl)cc1Cl [Compound 12, 5-(4-bromophenyl)-6-chloro-7-(2,4-dichlorophenyl)-3,7-dihydro-4H-pyrrolo[2,3-d]pyrimidine-4-thione] | 100% | 71.3 ± 1.6% | 64.3 ± 1.1% | 3.1 ± 0.2% | 81.5 ± 1.2% | 100% | 11.9 ± 0.9 µg/mL (≈ 24.5 µM) |  |  | 26.3 ± 3.4% |  |  |  | 59.7 ± 0.7 µg/mL (≈ 123 µM)
6 | Clc1ccc(-n2c(Cl)c(-c3ccc(Br)cc3)c3c(Cl)nc(C(Cl)(Cl)Cl)nc32)c(Cl)c1 [Compound 7, 5-(4-bromophenyl)-4,6-dichloro-7-(2,4-dichlorophenyl)-2-(trichloromethyl)-7H-pyrrolo[2,3-d]pyrimidine] | 100% | 14.2 ± 0.8% | 100% | 54.2 ± 1.6% | 100% | 100% | 16.2 ± 1.6 µg/mL (≈ 26.8 µM) |  |  |  |  |  |  | 
7 | Clc1ccc(-n2c(Cl)c(-c3ccc(Br)cc3)c3c(N4CCCC4)nc(C(Cl)(Cl)Cl)nc32)c(Cl)c1 [Compound 10, 5-(4-bromophenyl)-6-chloro-7-(2,4-dichlorophenyl)-4-(pyrrolidin-1-yl)-2-(trichloromethyl)-7H-pyrrolo[2,3-d]pyrimidine] | 100% | 10.2 ± 0.5% | 100% | 100% | 100% | 100% | 61.1 ± 1.4 µg/mL (≈ 95.5 µM) |  | 11.6 ± 0.8 µg/mL (≈ 18.1 µM) |  | 26.9 ± 0.6 µg/mL (≈ 42 µM) |  |  | 
8 | COc1ccc(-c2c(Cl)n(-c3ccc(Cl)cc3Cl)c3ncnc(OC)c23)cc1OC [Compound 9b, 6-chloro-7-(2,4-dichlorophenyl)-5-(3,4-dimethoxyphenyl)-4-methoxy-7H-pyrrolo[2,3-d]pyrimidine] | 100% |  | 45.6 ± 3.2% |  | 2.5 ± 0.3% |  |  |  |  | 63.8 ± 0.6% |  |  |  | 
9 | COc1ccc(-c2cn(-c3ccc(Cl)cc3Cl)c3nc[nH]c(=O)c23)cc1OC [Compound 3b, 7-(2,4-dichlorophenyl)-5-(3,4-dimethoxyphenyl)-3,7-dihydro-4H-pyrrolo[2,3-d]pyrimidin-4-one] | 11.5 ± 0.8% | 8.5 ± 0.6% | 14.6 ± 0.1% | 15.6 ± 1.3% | 76.3 ± 1.8% | 3.5 ± 0.9% |  |  |  | 10.4 ± 1.7% |  |  |  | 69.7 ± 1.3 µg/mL (≈ 167 µM)
10 | O=c1[nH]cnc2c1c(-c1ccc(Br)cc1)cn2-c1ccc(Cl)cc1Cl [Compound 3a, 5-(4-bromophenyl)-7-(2,4-dichlorophenyl)-3,7-dihydro-4H-pyrrolo[2,3-d]pyrimidin-4-one] | 63.5 ± 2.6% | 3.4 ± 0.2% | 80 to 90% | 36.5 ± 0.9% | 71.3 ± 0.8% | 95.3 ± 1.8% |  |  |  | 100% | 44.5 ± 1.3 µg/mL (≈ 102 µM) | 84.3 ± 1.1% | 19.2 ± 0.6 µg/mL (≈ 44.1 µM) | 
11 | Clc1ccc(-n2c(Cl)c(-c3ccc(Br)cc3)c3c(N4CCOCC4)nc(C(Cl)(Cl)Cl)nc32)c(Cl)c1 [Compound 19, 4-(5-(4-bromophenyl)-6-chloro-7-(2,4-dichlorophenyl)-2-(trichloromethyl)-7H-pyrrolo[2,3-d]pyrimidin-4-yl)morpholine] | 62.3 ± 3.4% | 5.6 ± 0.7% | 35.9 ± 1.5% | 3.7 ± 1.1% | 31.2 ± 5.1% | 52.7 ± 1.4% |  |  |  | 100% |  |  | 19.4 ± 0.8 µg/mL (≈ 29.6 µM) | 
12 | CSc1ncnc2c1c(-c1ccc(Br)cc1)c(Cl)n2-c1ccc(Cl)cc1Cl [Compound 13, 5-(4-bromophenyl)-6-chloro-7-(2,4-dichlorophenyl)-4-(methylthio)-7H-pyrrolo[2,3-d]pyrimidine] | 3.5 ± 0.6% | 42.6 ± 1.2% | 60.2 ± 1% | 32.2 ± 1.7% | 58.8 ± 1.2% | 25.3 ± 0.4% |  |  |  | 12.4 ± 1.9% |  |  |  | 
13 | CN1CCN(c2ncnc3c2c(-c2ccc(Br)cc2)c(Cl)n3-c2ccc(Cl)cc2Cl)CC1 [Compound 16a, 5-(4-bromophenyl)-6-chloro-7-(2,4-dichlorophenyl)-4-(4-methylpiperazin-1-yl)-7H-pyrrolo[2,3-d]pyrimidine] | 73.6 ± 2.2% | 3.2 ± 0.5% | 73.2 ± 0.8% | 3.8 ± 0.3% | 7.5 ± 1.1% | 70.5 ± 0.4% |  |  |  | 100% |  |  |  | 
14 | Cc1nc2c(c(-c3ccc(Br)cc3)cn2-c2ccc(Cl)cc2Cl)c(=O)[nH]1 [Compound 6, 5-(4-bromophenyl)-7-(2,4-dichlorophenyl)-2-methyl-3,7-dihydro-4H-pyrrolo[2,3-d]pyrimidin-4-one] | 100% |  | 100% | 100% | 100% | 84.9 ± 0.7% | 15.2 ± 0.9 µg/mL (≈ 33.8 µM) |  | 31.1 ± 0.9 µg/mL (≈ 69.2 µM) |  | 31.2 ± 0.9 µg/mL (≈ 69.5 µM) |  |  | 40 ± 1 µg/mL (≈ 89.1 µM)
